Test results reported in patent US20260015341A1, “PI3K INHIBITOR, PREPARATION METHOD THEREFOR, AND USE THEREOF” (HINOVA PHARMACEUTICALS INC., priority 2022, published 2026).

Legend:
MCF-10A cells = experiment: Inhibitory effects on the proliferation of MCF-10A cells (CCK8); format: cell-based; conditions: 6 days
Description: Experimental Example 2: Experiment of Inhibitory Effects on the Proliferation of MCF-10A Cells
MCF-10A cells (Cobioer Bio. #CBP60419MCF) were diluted with complete medium (Cobioer Bio. #CBP60419), seeded in 96-well plate (Corning #3599) at 500 cells/well, and then cultured for 24 h. Then, gradiently diluted compounds were added (starting at a final concentration of 10 μM, 3-fold dilution, 9 dose concentrations), and the final volume was adjusted to 100 μL/well. The plate was incubated at 37° C. under 5% CO2 for 6 days. After the cultivation was completed, CCK8 reagent (Signalway Antibody Bio. #CP002) was added at 10 μL/well, and then the plate was further incubated at 37° C. under 5% CO2 for 2-3 hours. The OD450 nm value was obtained by a microplate reader.
The results are shown in the MCF-OA IC50 column in Table 2.

T47D cells = experiment: Inhibitory effects on the proliferation of T47D cells (CellTiter-Glo); format: cell-based; conditions: 7 days
Description: Experimental Example 3: Experiment of Inhibitory Effects on the Proliferation of T47D Cells
T47D cells (ATCC. #HTB-133) were diluted with RPMI 1640 (Gibco #22400-089) containing 10% FBS (Hyclone #SH30084.03), seeded in 96-well plate (Biosharp #BS-MP-96W) at 1000 cells/well, and then cultured for 24 h. Then, gradiently diluted compounds were added (starting at a final concentration of 10 μM, 3-fold dilution, 9 dose concentrations), and the final volume was adjusted to 150 μL/well. The plate was incubated at 37° C. under […] for 7 days. After the cultivation was completed, CellTiter-Glo reagent (Promega #G7573) was added at 75 μL/well, and then the plate was further incubated at 25° C. for 10 min. After that, the chemiluminescence value was read using an instrument.
The results are shown in the T47D IC50 column in Table 2.

IC50 (T47D cells; Homo sapiens, 168 h)	IC50 (T47D cells)	SMILES	IC50 (MCF-10A cells; Homo sapiens, 144 h)	IC50 (MCF-10A cells)
1 to 5 µM	–	Cc1cc([C@@H](C)Nc2ccccc2C(O)C(F)(F)F)c2oc(-c3ccc(F)cc3)cc(=O)c2c1 (single isomer, unassigned) [Compound 67]	> 5 µM	–
< 1 µM	–	[2H]C([2H])([2H])n1c(-c2cccc(F)c2)nc2c([C@@H](C)Nc3ccc(Cl)nc3C(=O)O)cc(C)cc2c1=O [Compound 93]	> 5 µM	–
< 1 µM	–	C[C@@H](Nc1ccc(Cl)nc1C(=O)O)c1cc(Cl)cc2c(=O)n(C)c(-c3ccc(F)cn3)nc12 [Compound 83]	> 5 µM	–
< 1 µM	–	Cc1cc([C@@H](C)Nc2ccc(Cl)nc2C(N)=O)c2nc(-c3ccncc3)n(C)c(=O)c2c1 [Compound 110]	> 5 µM	–
–	1 to 5 µM	Cc1cc([C@@H](C)Nc2ccccc2C(O)C(F)(F)F)c2oc(-c3ccc(F)cc3)cc(=O)c2c1 (single isomer, unassigned) [Compound 68]	–	> 5 µM
1 to 5 µM	–	[2H]C([2H])([2H])n1c(-c2cccc(F)c2)nc2c([C@@H](C)Nc3ccc(Cl)nc3C(=O)O)cc(F)cc2c1=O [Compound 89]	> 5 µM	–
< 1 µM	–	COC(=O)c1nc(Cl)ccc1NC(C)c1cc(C)cc2c(=O)n(C)c(-c3ccc(OC)cc3)nc12 (centres unmarked) [Compound 106]	> 5 µM	–
< 1 µM	–	Cc1cc([C@@H](C)Nc2ccccc2C(N)=O)c2oc(-c3ccc(F)cc3F)cc(=O)c2c1 [Compound 47]	> 5 µM	–
< 1 µM	–	Cc1cc([C@@H](C)Nc2ccc(Cl)nc2C(=O)O)c2nc(-c3ccncc3)n(C)c(=O)c2c1 [Compound 109, (R)-6-chloro-3-((1-(3,6-dimethyl-4-oxo-2-(pyridin-4-yl)-3,4-dihydroquinazolin-8-yl)ethyl)amino)pyridinecarboxylic Acid]	> 5 µM	–
< 1 µM	–	[2H]C([2H])([2H])n1c(-c2ccc(F)cn2)nc2c([C@@H](C)Nc3ccc(F)cc3C(=O)O)cc(F)cc2c1=O [Compound 91]	> 5 µM	–
–	–	COc1ccc(-c2nc3c([C@@H](C)Nc4ccc(Cl)nc4C(N)=O)cc(C)cc3c(=O)n2C)cc1 [Compound 112]	1 to 5 µM	–
> 5 µM	–	Cc1cc([C@@H](C)Nc2ccccc2C(=O)O)c2nc(-c3c(C)noc3C)n(C)c(=O)c2c1 [Compound 51]	> 5 µM	–
> 5 µM	–	Cc1cc(C(C)N2CCc3ccccc32)c2oc(-c3ccc(F)cc3F)cc(=O)c2c1 (centres unmarked) [Compound 116, 2-(2,4-difluorophenyl)-8-(1-(indolin-1-yl)ethyl)-6-methyl-4H-benzopyran-4-one]	> 5 µM	–
1 to 5 µM	–	Cc1cc([C@@H](C)Nc2ccccc2C(=O)OC(C)(C)C)c2nc(-c3c(C)noc3C)n(C)c(=O)c2c1 [Compound 49]	> 5 µM	–
< 1 µM	–	C[C@@H](Nc1ccc(Cl)nc1C(=O)O)c1cc(Cl)cc2c(=O)n(C)c(-c3ncccn3)nc12 [Compound 98]	> 5 µM	–
1 to 5 µM	–	C[C@@H](Nc1cccc(F)c1C(=O)O)c1cc(F)cc2c(=O)n(C)c(-c3ccccc3)nc12 [Compound 79]	> 5 µM	–
< 1 µM	–	[2H]C([2H])([2H])n1c(-c2ccc(C(F)(F)F)nc2)nc2c([C@@H](C)Nc3ccc(Cl)nc3C(=O)O)cc(C)cc2c1=O [Compound 94]	> 5 µM	–
1 to 5 µM	–	Cc1cc([C@@H](C)Nc2ccccc2C(=NO)C(F)(F)F)c2oc(-c3ccc(F)cc3F)cc(=O)c2c1 (stereo in doubt) [Compound 64, (R,E)-2-(2,4-difluorophenyl)-6-methyl-8-(1-((2-(2,2,2-trifluoro-1-(hydroxyimino)ethyl)phenyl)amino)ethyl)-4H-chromen-4-one]	> 5 µM	–

IC50 (T47D cells; Homo sapiens, 168 h)	IC50 (T47D cells)	SMILES	IC50 (MCF-10A cells; Homo sapiens, 144 h)	IC50 (MCF-10A cells)
> 5 µM	–	C[C@@H](Nc1sccc1C(=O)O)c1cc(F)cc2c(=O)n(C)c(-c3ccc(F)cn3)nc12 [Compound 84]	> 5 µM	–
1 to 5 µM	–	Cc1cc([C@@H](C)Nc2cc(F)ccc2C(=O)O)c2nc(-c3ccc(F)cn3)n(C)c(=O)c2c1 [Compound 78]	> 5 µM	–
–	–	COC(=O)c1nc(Cl)ccc1N[C@@H](C)c1cc(C)cc2c(=O)nc(-c3ccc(C(F)(F)F)nc3)n(C)c12 [Compound 114]	> 5 µM	–
1 to 5 µM	–	Cc1cc([C@@H](C)Nc2ccc(Cl)nc2C(=O)OC(C)(C)C)c2nc(-c3c(C)noc3C)n(C)c(=O)c2c1 [Compound 50]	> 5 µM	–
1 to 5 µM	–	CCSc1nc2c([C@@H](C)Nc3ccc(Cl)nc3C(=O)OC)cc(F)cc2c(=O)n1C [Compound 105]	> 5 µM	–
> 5 µM	–	[2H]C([2H])([2H])n1c(-c2ccc(F)cn2)nc2c([C@@H](C)Nc3ccc(Cl)cc3C(=O)O)cc(F)cc2c1=O [Compound 88, (R)-5-chloro-2-((1-(6-fluoro-2-(5-fluoropyridin-2-yl)-3-deuteromethyl-4-oxo-3,4-dihydroquinazolin-8-yl)ethyl)amino)benzoic Acid]	> 5 µM	–
> 5 µM	–	Cc1cc([C@@H](C)N[S@+]([O-])C(C)(C)C)c2nc(-c3ccncc3)n(C)c(=O)c2c1 [Compound 108]	> 5 µM	–
1 to 5 µM	–	C[C@@H](Nc1ccccc1C(=O)O)c1cc(F)cc2c(=O)n(C)c(-c3ccc(F)cn3)nc12 [Compound 76]	> 5 µM	–
< 1 µM	–	COc1ccc(-c2nc3c(C(C)N)cc(C)cc3c(=O)n2C)cc1 (centres unmarked) [Compound 107]	> 5 µM	–
< 1 µM	–	Cc1cc([C@@H](C)Nc2ccc(Cl)cc2C(=O)O)c2nc(-c3ccc(F)cn3)n(C)c(=O)c2c1 [Compound 90]	> 5 µM	–
< 1 µM	–	C[C@@H](Nc1ccc(Cl)nc1C(=O)O)c1cc(Cl)cc2c(=O)n(C)c(-c3ncc(Cl)cn3)nc12 [Compound 97]	1 to 5 µM	–
< 1 µM	–	Cc1cc([C@@H](C)Nc2ccc(F)cc2C(=O)O)c2nc(-c3ccc(F)cn3)n(C)c(=O)c2c1 [Compound 87]	> 5 µM	–
> 5 µM	–	C[C@@H](Nc1c(C(=O)O)cnn1C)c1cc(Cl)cc2c(=O)n(C)c(-c3ccc(F)cn3)nc12 [Compound 86]	> 5 µM	–
–	–	COC(=O)c1nc(Cl)ccc1N[C@H](C)c1cc(C)cc2c(=O)nc(-c3ccc(C(F)(F)F)nc3)n(C)c12 [Compound 113]	> 5 µM	–
–	–	COc1ccc(-c2nc3c([C@@H](C)Nc4ccc(Cl)nc4C(=O)O)cc(C)cc3c(=O)n2C)cc1 [Compound 111]	> 5 µM	–
1 to 5 µM	–	COC(=O)c1occc1N[C@H](C)c1cc(C)cc2c(=O)cc(-c3ccc(F)cc3F)oc12 [Compound 63, methyl (R)-3-((1-(2-(2,4-difluorophenyl)-6-methyl-4-oxo-4H-chromen-8-yl)ethyl)amino)furan-2-carboxylate]	> 5 µM	–
> 5 µM	–	C[C@@H](Nc1cc(F)ccc1C(=O)O)c1cc(F)cc2c(=O)n(C)c(-c3ccc(F)cn3)nc12 [Compound 81]	> 5 µM	–
1 to 5 µM	–	Cc1cc([C@@H](C)Nc2ccc(Cl)nc2C(=O)O)c2nc(-c3ccc(C(F)(F)F)cn3)n(C)c(=O)c2c1 [Compound 75]	> 5 µM	–
